Data published in US8574569B2, “Stabilized protease composition” (Trobio AB, priority 2005, dated 2013).
Like-named read-outs stand apart in the source and are kept apart here.

How the values were obtained:
human thrombin [1] = molecular target: T1, human thrombin (Homo sapiens, UniProt P00734); assay: Stability of human thrombin solutions (fibrinogen clotting activity decay curves, T 70%); assay type: physicochemical; parameters: The thrombin used in the study is human thrombin derived from plasma; purchased Biovitrum AB, Sweden; host or cells: human plasma
Experimental: This value, denoted “T 70%”, is chosen since it corresponds to what could be accepted as a maximum permitted loss in activity during a life span of a commercial product.
In the experimental studies, a high temperature (37° C.) has been used, as well as a high concentration of enzyme. This has been made in order to obtain stability data in reasonably short times, and not have to wait for months or years.
(§1) The clotting times were measured using an Amelungen Kc 1 coagulometer (Amelungen, Germany). […] From the values obtained, activity decay curves could be constructed.

plasmin = molecular target: T2, plasmin (Homo sapiens, UniProt P00747); assay: Stability of plasmin solutions (Chromozym TH chromogenic substrate, T 70%); assay type: physicochemical; conditions: for T 70%: 100 μg/ml plasmin in 10 mM HEPES, 0.13 M NaCl, pH 7.4, 37° C.; for increase in stability of plasmin composition, factor: T 70% relative to plasmin without additives, 37° C.
T2 construct: 100 μg/ml of plasmin (specific activity 3.2 units/mg, Sigma-Aldrich); purchased Sigma-Aldrich
T2 sequence (P00747 581-810 limits assumed, species assumed): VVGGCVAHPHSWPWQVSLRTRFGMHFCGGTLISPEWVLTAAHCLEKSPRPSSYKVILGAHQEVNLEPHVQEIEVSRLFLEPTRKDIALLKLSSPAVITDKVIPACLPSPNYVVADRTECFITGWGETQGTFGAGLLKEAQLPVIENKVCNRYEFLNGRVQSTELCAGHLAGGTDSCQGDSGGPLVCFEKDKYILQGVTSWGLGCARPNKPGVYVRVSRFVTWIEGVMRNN
T2 sequence (P00747 97-580 partner limits assumed, species assumed): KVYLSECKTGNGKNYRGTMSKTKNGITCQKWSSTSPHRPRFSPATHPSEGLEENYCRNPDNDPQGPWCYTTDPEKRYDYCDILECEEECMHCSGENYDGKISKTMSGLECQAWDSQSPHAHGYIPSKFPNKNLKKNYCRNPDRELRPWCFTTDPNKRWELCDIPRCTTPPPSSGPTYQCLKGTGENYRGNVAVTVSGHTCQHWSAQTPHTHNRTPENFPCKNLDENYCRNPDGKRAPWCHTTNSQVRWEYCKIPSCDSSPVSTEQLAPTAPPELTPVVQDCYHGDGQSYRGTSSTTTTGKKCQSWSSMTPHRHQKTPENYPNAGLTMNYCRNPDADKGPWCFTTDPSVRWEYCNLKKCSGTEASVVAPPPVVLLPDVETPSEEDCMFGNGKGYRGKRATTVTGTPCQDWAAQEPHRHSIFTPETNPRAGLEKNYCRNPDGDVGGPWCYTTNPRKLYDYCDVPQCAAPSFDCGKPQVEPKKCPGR
Experimental: The stabilization of solutions of plasmin in accordance with the invention was tested. The activity of plasmin was determined using chromogenic peptide substrate Chromozym TH (Pentapharm, Switzerland) and measurement of absorbance change at 405 nm in a spectrophotometer. Solutions containing 100 μg/ml of plasmin (specific activity 3.2 units/mg, Sigma-Aldrich) in 10 mM HEPES and 0.13 M NaCl, pH 7.4, as well as stabilizers as indicated in Table 2 below were incubated at 37° C., and samples were taken out at various time intervals for activity determination.

human thrombin [2] = molecular target: T1, human thrombin; conditions: for Apparent inhibition (%) / Apparent thrombin concentration (U/ml): 89 units/ml human thrombin, 0.01 M HEPES, 0.13 M NaCl, pH 7.4
Experimental: The clotting tests in this experimental setup were performed in 0.01 M HEPES, 0.13 M NaCl buffer of pH 7.4, which is according to standard procedure (EU Pharmacopeia). […] Solutions of various concentrations of morpholine were prepared in the HEPES buffer by adding a concentrated morpholine solution adjusted to pH 7.4.

trypsin = molecular target: T3, trypsin (Bos taurus, UniProt P00760); assay: Stability of trypsin solutions (TAME substrate, T 70%); assay type: physicochemical; conditions: for T 70%: 100 μg/ml trypsin in 10 mM HEPES, 0.13 M NaCl, pH 7.4, 37° C.; for increase in stabilization of trypsin, factor: T 70% relative to trypsin without additives, 37° C.
T3 construct: 100 μg/ml of trypsin (TPCK-treated, Sigma-Aldrich); purchased Sigma-Aldrich
T3 sequence (P00760 24-246): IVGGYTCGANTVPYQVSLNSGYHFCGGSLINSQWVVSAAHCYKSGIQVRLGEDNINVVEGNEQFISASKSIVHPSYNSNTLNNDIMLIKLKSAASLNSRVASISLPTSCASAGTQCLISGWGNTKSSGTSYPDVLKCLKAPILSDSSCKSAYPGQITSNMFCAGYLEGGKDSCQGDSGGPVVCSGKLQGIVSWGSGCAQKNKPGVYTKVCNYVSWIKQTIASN
Experimental: The stabilization of solutions of trypsin in accordance with the invention was tested. The activity of trypsin was determined using tosyl arginine methyl ester (TAME) as substrate and measuring the absorbance change at 247 nm in a spectrophotometer. Solutions containing 100 μg/ml of trypsin (TPCK-treated, Sigma-Aldrich) in 10 mM HEPES and 0.13 M NaCl, pH 7.4, as well as stabilizers as indicated in Table 3 below were incubated at 37° C., and samples were taken out at various time intervals for activity determination.

bovine thrombin = molecular target: T4, bovine thrombin (Bos taurus, UniProt P00735); assay: Stability of bovine thrombin solutions (T 70%); assay type: physicochemical; conditions: 0.4 mg/ml bovine thrombin (Baxter) in HEPES buffer, 37° C.
T4 construct: purchased Baxter
Experimental: as §1

human thrombin [3] = molecular target: T1, human thrombin; assay: Stability of human thrombin solutions (fibrinogen clotting activity decay curves, T 70%); assay type: physicochemical; parameters: The thrombin used in the study is human thrombin derived from plasma; purchased Biovitrum AB, Sweden; host or cells: human plasma; conditions: 1 mg/ml thrombin in 10 mM HEPES, 0.13 M NaCl, pH 7.4
[4] = T 70% relative to 1 mg/ml thrombin without additives, 37° C.
[5] = time to reach 70% of initial activity, 1 mg/ml thrombin in 10 mM HEPES, 0.13 M NaCl, pH 7.4, 37° C.

O=S(=O)(O)CCCN1CCOCC1 [MOPS, 3-(N-morpholino)propanesulfonic acid]
increase in stabilization, factor (human thrombin [1]; [4]): 4.7
T 70% (human thrombin [1]; pH 7.4): 7.5 days

CCN(CC)CCN [N,N-diethylethylenediamine]
T 70% (plasmin): 8 h
increase in stability of plasmin composition, factor (plasmin): 2.7
T 70% (human thrombin [1]; [5]): 10 days

[Cl-].[Na+] [NaCl, reference compound]
Apparent inhibition (%) (human thrombin [2]; 0.05 M added): 17%
Apparent thrombin concentration (U/ml) (human thrombin [2]; 0.05 M added): 74 U/ml
Apparent inhibition (%) (human thrombin [2]; 0.10 M added): 40%
Apparent thrombin concentration (U/ml) (human thrombin [2]; 0.10 M added): 53 U/ml
Apparent inhibition (%) (human thrombin [2]; 0.15 M added): 34%
Apparent thrombin concentration (U/ml) (human thrombin [2]; 0.15 M added): 58 U/ml
Apparent inhibition (%) (human thrombin [2]; 0.20 M added): 37%
Apparent thrombin concentration (U/ml) (human thrombin [2]; 0.20 M added): 55 U/ml

N=C(N)c1ccccc1 [benzamidine, reference compound]
T 70% (plasmin): 16 h
T 70% (trypsin): 43 h
increase in stabilization of trypsin, factor (trypsin): 72

C1COCCN1 [morpholine]
T 70% (plasmin): 12 h
increase in stability of plasmin composition, factor (plasmin): 4
T 70% (trypsin): 8 h
increase in stabilization of trypsin, factor (trypsin): 13
Apparent inhibition (%) (human thrombin [2]; 0.05 M added): 4%
Apparent thrombin concentration (U/ml) (human thrombin [2]; 0.05 M added): 87 U/ml
Apparent inhibition (%) (human thrombin [2]; 0.10 M added): 20%
Apparent thrombin concentration (U/ml) (human thrombin [2]; 0.10 M added): 71 U/ml
Apparent inhibition (%) (human thrombin [2]; 0.15 M added): 45%
Apparent thrombin concentration (U/ml) (human thrombin [2]; 0.15 M added): 49 U/ml
Apparent inhibition (%) (human thrombin [2]; 0.20 M added): 43%
Apparent thrombin concentration (U/ml) (human thrombin [2]; 0.20 M added): 51 U/ml
inhibitor of thrombin (conclusion) (human thrombin [2]; clotting time prolongation ascribed to ionic strength): not an inhibitor of thrombin
T 70% (human thrombin [1]; [5]): 8.5 days

O=S(=O)(O)CCCCN1CCOCC1 [morpholino butyl sulphonic acid]
T 70% (human thrombin [1]; [5]): 4.0 days

OCCN1CCOCC1 [morpholino ethyl alcohol]
T 70% (human thrombin [1]; [5]): 3.8 days

O=S(=O)(O)CCN1CCOCC1 [morpholino ethyl sulphonic acid]
T 70% (human thrombin [1]; [5]): 3.2 days

O=C(O)CCCN1CCOCC1 [morpholino propyl carboxylic acid]
T 70% (human thrombin [1]; [5]): 4.1 days

N-(2′-phenoxy)-4-aminopyridin
increase in stabilization, factor (human thrombin [1]; [4]): 22
T 70% (human thrombin [1]; time to reach 70% of initial activity, 1 mg/ml thrombin in 10 mM HEPES, 0.13 M NaCl, pH 7.4, 37° C., listed as 1.9 mM N-(2′-phenoxy)-4-aminopyridin): 35 days
T 70% (human thrombin [1]; time to reach 70% of initial activity, 1 mg/ml thrombin in 10 mM HEPES, 0.13 M NaCl, pH 7.4, 37° C., listed as 3.1 mM N-(2′-phenoxy)-4-aminopyridin): 74 days

aminobenzamidine [reference compound]
T 70% (plasmin): 52 h
increase in stability of plasmin composition, factor (plasmin): 17
increase in stabilization, factor (human thrombin [1]): 12.5
T 70% (human thrombin [1]; pH 7.4): 20 days

bovine thrombin: bovine thrombin (Baxter), solution in HEPES buffer without additives
T 70% (bovine thrombin): 1.3 days

thrombin
T 70% (human thrombin [1]; 15.0 activity units/ml human thrombin in HEPES buffer, pH 7.4): 23 days
T 70% (human thrombin [3]; refrigerator storage (around 5° C.)): 36 days
T 70% (human thrombin [3]; room temperature (around 21° C.)): 5.4 days
